Test results reported in patent publication US20210382058A1, “PATIENT SELECTION FOR TREATMENT OF MYC POSITIVE CANCERS WITH INDENOISOQUINOLINES” (Purdue Research Foundation, priority 2020, published 2021).
Where two headings read alike, the source gives them in different places.

Assays:
[1] = tested on: NCI-60 cancer cell lines; experiment: NCI-60 cancer cell line drug screen (GI50, MGM); format: cell-based, human; settings: Homo sapiens
Protocol: Cancer cells were incubated with the test compounds at five concentrations ranging from 100 μM to 10 nM for 48 h. […] The approximate average of GI50 values across the entire panel of NCI-60 cancer cell lines for each compound was recorded as the MGM value.

[2] = tested on: MYC protein expression in MCF-7 breast cancer cells; experiment: Western blotting of MYC protein level in MCF-7 cells; format: cell-based, human; settings: Homo sapiens, MCF7; western blotting, MCF-7 cells, 0.5, 1, 2, and 4 μM, 24 hours; read-out: MYC Inhibition
Protocol: MCF-7 cells were incubated with each compound at four concentrations (0.5, 1, 2, and 4 μM) for 24 hours, and the MYC protein levels were measured (FIG. 3A and FIGS. 12 A to 12 F).
Cells were incubated at 37° C. with 5% CO2.
The gels were cut into strips that contained the proteins of interest and transferred to nitrocellulose membrane (I323002, Invitrogen) using an iBlot 2 Dry Transfer Device (Invitrogen). Immunoblotting was carried out according to standard procedures using the ECL detection method. The membrane was hybridized with the following antibodies: monoclonal anti-MYC (1:1000 dilution; rabbit, Cell Signaling Technology), monoclonal anti-GAPDH (1:2000 dilution; rabbit, Cell Signaling Technology).

COc1cc2c3c(n(CCCn4ccnc4)c(=O)c2cc1OC)-c1cc2c(cc1C3=O)OCO2 [Compound 42]
GI50 ([1]; 786-0, Renal Cancer, 786-0, read-out: Antiproliferative Activities [GI50 (μM)]): < 0.01 µM | GI50 ([1]; A498, Renal Cancer, A498, read-out: Antiproliferative Activities [GI50 (μM)]): 7.17 µM | GI50 ([1]; A549, Non-Small Cell Lung Cancer, A549/ATCC, read-out: Antiproliferative Activities [GI50 (μM)]): 10.5 µM | GI50 ([1]; ACHN, Renal Cancer, ACHN, read-out: Antiproliferative Activities [GI50 (μM)]): < 0.01 µM | GI50 ([1]; CAKI-1, Renal Cancer, CAKI-1, read-out: Antiproliferative Activities [GI50 (μM)]): 0.32 µM | GI50 ([1]; CCRF-CEM, Leukemia, CCRF-CEM, read-out: Antiproliferative Activities [GI50 (μM)]): < 0.01 µM | GI50 ([1]; COLO 205, Colon Cancer, COLO 205, read-out: Antiproliferative Activities [GI50 (μM)]): > 100 µM | GI50 ([1]; DU-145, Prostate Cancer, DU-145, read-out: Antiproliferative Activities [GI50 (μM)]): < 0.01 µM | GI50 ([1]; EKVX, Non-Small Cell Lung Cancer, EKVX, read-out: Antiproliferative Activities [GI50 (μM)]): 70.7 µM | GI50 ([1]; HCC 2998, Colon Cancer, HCC-2998, read-out: Antiproliferative Activities [GI50 (μM)]): 29.3 µM | GI50 ([1]; HCT-15, Colon Cancer, HCT-15, read-out: Antiproliferative Activities [GI50 (μM)]): > 100 µM | GI50 ([1]; HCT-116, Colon Cancer, HCT-116, read-out: Antiproliferative Activities [GI50 (μM)]): 0.17 µM | GI50 ([1]; HL-60, read-out: Antiproliferative Activities [GI50 (μM)]): 0.02 µM | GI50 ([1]; HOP-62, Non-Small Cell Lung Cancer, HOP-62, read-out: Antiproliferative Activities [GI50 (μM)]): < 0.01 µM | GI50 ([1]; HOP-92, Non-Small Cell Lung Cancer, HOP-92, read-out: Antiproliferative Activities [GI50 (μM)]): 0.19 µM | GI50 ([1]; HT-29, Colon Cancer, HT29, read-out: Antiproliferative Activities [GI50 (μM)]): > 100 µM | GI50 ([1]; Hs-578T, Breast Cancer, HS 578T, read-out: Antiproliferative Activities [GI50 (μM)]): 54.2 µM | GI50 ([1]; IGROV-1, Ovarian Cancer, IGROV1, read-out: Antiproliferative Activities [GI50 (μM)]): 6.72 µM | GI50 ([1]; K562, Leukemia, K-562, read-out: Antiproliferative Activities [GI50 (μM)]): 1.49 µM | GI50 ([1]; KM12, Colon Cancer, KM12, read-out: Antiproliferative Activities [GI50 (μM)]): > 100 µM | GI50 ([1]; LOX IMVI, Melanoma, LOX IMVI, read-out: Antiproliferative Activities [GI50 (μM)]): 0.06 µM | GI50 ([1]; Leukemia, SR, read-out: Antiproliferative Activities [GI50 (μM)]): < 0.01 µM | GI50 ([1]; MCF7, Breast Cancer, MCF7, read-out: Antiproliferative Activities [GI50 (μM)]): < 0.01 µM | GI50 ([1]; MDA-MB-231, Breast Cancer, MDA-MB-231/ATCC, read-out: Antiproliferative Activities [GI50 (μM)]): 77.8 µM | GI50 ([1]; MDA-MB-435, Melanoma, MDA-MB-435, read-out: Antiproliferative Activities [GI50 (μM)]): > 100 µM | GI50 ([1]; MOLT-4, Leukemia, MOLT-4, read-out: Antiproliferative Activities [GI50 (μM)]): < 0.01 µM | GI50 ([1]; Malme-3M, Melanoma, MALME-3M, read-out: Antiproliferative Activities [GI50 (μM)]): 1.6 µM | GI50 ([1]; Melanoma, M14, read-out: Antiproliferative Activities [GI50 (μM)]): < 0.01 µM | GI50 ([1]; NCI-H23, Non-Small Cell Lung Cancer, NCI-H23, read-out: Antiproliferative Activities [GI50 (μM)]): 0.09 µM | GI50 ([1]; NCI-H226, Non-Small Cell Lung Cancer, NCI-H226, read-out: Antiproliferative Activities [GI50 (μM)]): 0.37 µM | GI50 ([1]; NCI-H322M, Non-Small Cell Lung Cancer, NCI-H322M, read-out: Antiproliferative Activities [GI50 (μM)]): > 100 µM | GI50 ([1]; NCI-H460, Non-Small Cell Lung Cancer, NCI-H460, read-out: Antiproliferative Activities [GI50 (μM)]): < 0.01 µM | GI50 ([1]; NCI-H522, Non-Small Cell Lung Cancer, NCI-H522, read-out: Antiproliferative Activities [GI50 (μM)]): < 0.01 µM | GI50 ([1]; OVCAR-3, Ovarian Cancer, OVCAR-3, read-out: Antiproliferative Activities [GI50 (μM)]): 16.4 µM | GI50 ([1]; OVCAR-4, Ovarian Cancer, OVCAR-4, read-out: Antiproliferative Activities [GI50 (μM)]): > 100 µM | GI50 ([1]; OVCAR-5, Ovarian Cancer, OVCAR-5, read-out: Antiproliferative Activities [GI50 (μM)]): > 100 µM | GI50 ([1]; OVCAR-8, Ovarian Cancer, OVCAR-8, read-out: Antiproliferative Activities [GI50 (μM)]): 1.03 µM | GI50 ([1]; Ovarian Cancer, NCl/ADR-RES, read-out: Antiproliferative Activities [GI50 (μM)]): 0.35 µM | GI50 ([1]; Prostate Cancer, PC-3, read-out: Antiproliferative Activities [GI50 (μM)]): 34.9 µM | GI50 ([1]; RPMI-8226, Leukemia, RPMI-8226, read-out: Antiproliferative Activities [GI50 (μM)]): < 0.01 µM | GI50 ([1]; RXF 393, Renal Cancer, RXF 393, read-out: Antiproliferative Activities [GI50 (μM)]): 8 µM | GI50 ([1]; Renal Cancer, U0-31, read-out: Antiproliferative Activities [GI50 (μM)]): 0.03 µM | GI50 ([1]; SF-295, CNS Cancer, SF-295, read-out: Antiproliferative Activities [GI50 (μM)]): < 0.01 µM | GI50 ([1]; SF-539, CNS Cancer, SF-539, read-out: Antiproliferative Activities [GI50 (μM)]): < 0.01 µM | GI50 ([1]; SK-MEL-2, Melanoma, SK-MEL-2, read-out: Antiproliferative Activities [GI50 (μM)]): > 100 µM | GI50 ([1]; SK-MEL-5, Melanoma, SK-MEL-5, read-out: Antiproliferative Activities [GI50 (μM)]): 0.22 µM | GI50 ([1]; SK-MEL-28, Melanoma, SK-MEL-28, read-out: Antiproliferative Activities [GI50 (μM)]): > 100 µM | GI50 ([1]; SK-OV-3, Ovarian Cancer, SK-OV-3, read-out: Antiproliferative Activities [GI50 (μM)]): < 0.01 µM | GI50 ([1]; SN12C, Renal Cancer, SN12C, read-out: Antiproliferative Activities [GI50 (μM)]): < 0.01 µM | GI50 ([1]; SNB-19, CNS Cancer, SNB-19, read-out: Antiproliferative Activities [GI50 (μM)]): < 0.01 µM | GI50 ([1]; SNB-75, CNS Cancer, SNB-75, read-out: Antiproliferative Activities [GI50 (μM)]): 0.23 µM | GI50 ([1]; SW-620, Colon Cancer, SW-620, read-out: Antiproliferative Activities [GI50 (μM)]): 0.06 µM | GI50 ([1]; T47D, Breast Cancer, T-47D, read-out: Antiproliferative Activities [GI50 (μM)]): < 0.01 µM | GI50 ([1]; TK-10, Renal Cancer, TK-10, read-out: Antiproliferative Activities [GI50 (μM)]): 73.7 µM | GI50 ([1]; U-251, CNS Cancer, U251, read-out: Antiproliferative Activities [GI50 (μM)]): < 0.01 µM | GI50 ([1]; UACC-62, Melanoma, UACC-62, read-out: Antiproliferative Activities [GI50 (μM)]): < 0.01 µM | GI50 ([1]; UACC-257, Melanoma, UACC-257, read-out: Antiproliferative Activities [GI50 (μM)]): > 100 µM | minimal effective concentration [2]: 0.5 to 1 µM
